In ChEMBL document CHEMBL5550120, “SuFEx-based chemical diversification for the systematic discovery of CRBN molecular glues” (Bioorg Med Chem, 2024):
Calls of active or inactive are those of the source. The calls are words filed in the database; no cut-off is given here.

Tests used:
[1] = target: T1, Protein cereblon/Eukaryotic peptide chain release factor GTP-binding subunit ERF3A (Homo sapiens, UniProt Q96SW2+P15170); assay: Molecular glue activity at CRBN/GSPT1 in CRBN depleted human BE2C cells assessed as induction of GSPT1 degradation at 3 uM measured after 3 hrs by immunoblot analysis; assay type: cell-based
Target sequence in this assay (P15170 whole entry, looked up): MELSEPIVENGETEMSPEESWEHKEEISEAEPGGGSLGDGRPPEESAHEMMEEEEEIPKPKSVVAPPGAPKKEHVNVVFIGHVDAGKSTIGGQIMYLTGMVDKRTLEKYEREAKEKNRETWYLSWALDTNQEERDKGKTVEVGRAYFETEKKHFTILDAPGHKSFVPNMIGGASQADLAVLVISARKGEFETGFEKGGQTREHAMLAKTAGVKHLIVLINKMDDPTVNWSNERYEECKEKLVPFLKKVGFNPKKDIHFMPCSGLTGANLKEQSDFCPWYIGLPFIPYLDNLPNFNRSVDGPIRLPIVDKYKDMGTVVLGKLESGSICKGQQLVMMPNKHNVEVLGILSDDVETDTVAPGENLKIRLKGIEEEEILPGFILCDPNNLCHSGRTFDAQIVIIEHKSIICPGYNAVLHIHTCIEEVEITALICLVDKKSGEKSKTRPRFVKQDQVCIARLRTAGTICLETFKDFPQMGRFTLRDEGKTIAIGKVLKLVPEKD
Target sequence in this assay (Q96SW2 whole entry, looked up): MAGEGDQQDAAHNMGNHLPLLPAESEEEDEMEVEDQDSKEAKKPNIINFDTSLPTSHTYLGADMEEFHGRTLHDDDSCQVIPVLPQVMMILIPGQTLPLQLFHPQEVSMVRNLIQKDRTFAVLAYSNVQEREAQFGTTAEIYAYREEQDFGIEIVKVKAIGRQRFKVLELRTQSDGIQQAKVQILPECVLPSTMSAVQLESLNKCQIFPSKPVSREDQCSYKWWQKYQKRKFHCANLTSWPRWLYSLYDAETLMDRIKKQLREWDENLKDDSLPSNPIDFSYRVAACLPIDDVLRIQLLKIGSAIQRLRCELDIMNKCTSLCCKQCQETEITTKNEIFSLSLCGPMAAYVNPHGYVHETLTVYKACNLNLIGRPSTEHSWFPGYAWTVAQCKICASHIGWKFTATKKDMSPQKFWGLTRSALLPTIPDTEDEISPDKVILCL

[2] = target: T1, Protein cereblon/Eukaryotic peptide chain release factor GTP-binding subunit ERF3A; assay: Molecular glue activity at CRBN/HiBiT-tagged GSPT1 in wild type human BE2C cells assessed as induction of GSPT1 degradation measured after 3 hrs by immunoblot analysis; assay type: cell-based
Target sequence in this assay (Q96SW2 whole entry): as the sequence (Q96SW2 whole entry, looked up) above
Target sequence in this assay (P15170 whole entry): as the sequence (P15170 whole entry, looked up) above

[3] = target: T1, Protein cereblon/Eukaryotic peptide chain release factor GTP-binding subunit ERF3A; assay: Molecular glue activity at CRBN/HiBiT-tagged GSPT1 in human BE2C cells assessed as induction of GSPT1 degradation at 3 uM pretreated with MLN4924 at 1 uM for 1 hr followed by compound treatment and measured after 3 hrs by immunoblot analysis; assay type: cell-based
Target sequence in this assay (P15170 whole entry, looked up): as above
Target sequence in this assay (Q96SW2 whole entry, looked up): as the sequence (Q96SW2 whole entry, looked up) above

[4] = target: T1, Protein cereblon/Eukaryotic peptide chain release factor GTP-binding subunit ERF3A; assay: Molecular glue activity at CRBN/HiBiT-tagged GSPT1 in human MV4-11 cells assessed as induction of GSPT1 degradation at 3 uM pretreated with carfilzomib at 500 nM for 1 hr followed by compound treatment and measured after 3 hrs by immunoblot analysis; assay type: cell-based
Target sequence in this assay (P15170 whole entry, looked up): as the sequence (P15170 whole entry, looked up) above
Target sequence in this assay (Q96SW2 whole entry, looked up): as the sequence (Q96SW2 whole entry, looked up) above

BE(2)-C [5] = assay: Antiproliferative activity against wild type human BE2C cells assessed as reduction in cell viability measured after 3 days by ATP-dependent luminescence assay; assay type: functional, cell-based; conditions: 72 h
MV4-11 [6] = assay: Antiproliferative activity against human MV4-11 cells harboring GSPT1 G575N mutant assessed as reduction in cell viability measured after 3 days by ATP-dependent luminescence assay; assay type: functional, cell-based; conditions: time 3.0 day
[7] = target: T1, Protein cereblon/Eukaryotic peptide chain release factor GTP-binding subunit ERF3A; assay: Molecular glue activity at CRBN/GSPT1 in human MOLT-4 cells harboring GSPT1 G575N mutant assessed as induction of GSPT1 degradation at 3 uM measured after 3 hrs by immunoblot analysis; assay type: cell-based
Target sequence in this assay (P15170 whole entry, looked up): as the sequence (P15170 whole entry, looked up) above
Target sequence in this assay (Q96SW2 whole entry, looked up): as the sequence (Q96SW2 whole entry, looked up) above

[8] = target: T1, Protein cereblon/Eukaryotic peptide chain release factor GTP-binding subunit ERF3A; assay: Molecular glue activity at CRBN/HiBiT-tagged GSPT1 in human MV4-11 cells assessed as induction of GSPT1 degradation at 3 uM pretreated with MLN4924 at 1 uM for 1 hr followed by compound treatment and measured after 3 hrs by immunoblot analysis; assay type: cell-based
Target sequence in this assay (P15170 whole entry, looked up): as the sequence (P15170 whole entry, looked up) above
Target sequence in this assay (Q96SW2 whole entry, looked up): as the sequence (Q96SW2 whole entry, looked up) above

BE(2)-C [9] = assay: Antiproliferative activity against CRBN depleted human BE2C cells assessed as reduction in cell viability measured after 3 days by ATP-dependent luminescence assay; assay type: functional, cell-based; conditions: time 3.0 day
MOLT-4 [10] = assay: Antiproliferative activity against wild type human MOLT-4 cells assessed as reduction in cell viability measured after 3 days by ATP-dependent luminescence assay; assay type: functional, cell-based; conditions: MOLT-4, 72 h
[11] = target: T1, Protein cereblon/Eukaryotic peptide chain release factor GTP-binding subunit ERF3A; assay: Molecular glue activity at CRBN/HiBiT-tagged GSPT1 in wild type human MV4-11 cells assessed as induction of GSPT1 degradation measured after 3 hrs by immunoblot analysis; assay type: cell-based
Target sequence in this assay (Q96SW2 whole entry): as the sequence (Q96SW2 whole entry, looked up) above
Target sequence in this assay (P15170 whole entry): as the sequence (P15170 whole entry, looked up) above

[12] = target: T1, Protein cereblon/Eukaryotic peptide chain release factor GTP-binding subunit ERF3A; assay: Molecular glue activity at CRBN/HiBiT-tagged GSPT1 in human MOLT-4 cells assessed as induction of GSPT1 degradation at 3 uM pretreated with pomalidomide at 25 uM for 1 hr followed by compound treatment and measured after 3 hrs by immunoblot analysis; assay type: cell-based
Target sequence in this assay (P15170 whole entry, looked up): as above
Target sequence in this assay (Q96SW2 whole entry, looked up): as the sequence (Q96SW2 whole entry, looked up) above

[13] = target: T1, Protein cereblon/Eukaryotic peptide chain release factor GTP-binding subunit ERF3A; assay: Molecular glue activity at CRBN/GSPT1 in human BE2C cells harboring GSPT1 G575N mutant assessed as induction of GSPT1 degradation at 3 uM measured after 3 hrs by immunoblot analysis; assay type: cell-based
[14] = target: T1, Protein cereblon/Eukaryotic peptide chain release factor GTP-binding subunit ERF3A; assay: Molecular glue activity at CRBN/HiBiT-tagged GSPT1 in human MV4-11 cells assessed as induction of GSPT1 degradation at 3 uM pretreated with pomalidomide at 25 uM for 1 hr followed by compound treatment and measured after 3 hrs by immunoblot analysis; assay type: cell-based
[15] = target: T1, Protein cereblon/Eukaryotic peptide chain release factor GTP-binding subunit ERF3A; assay: Molecular glue activity at CRBN/HiBiT-tagged GSPT1 in human MOLT-4 cells assessed as induction of GSPT1 degradation at 3 uM pretreated with MLN4924 at 1 uM for 1 hr followed by compound treatment and measured after 3 hrs by immunoblot analysis; assay type: cell-based
[16] = target: T1, Protein cereblon/Eukaryotic peptide chain release factor GTP-binding subunit ERF3A; assay: Molecular glue activity at CRBN/GSPT1 in human MV4-11 cells harboring GSPT1 G575N mutant assessed as induction of GSPT1 degradation at 3 uM measured after 3 hrs by immunoblot analysis; assay type: cell-based
[17] = target: T1, Protein cereblon/Eukaryotic peptide chain release factor GTP-binding subunit ERF3A; assay: Molecular glue activity at CRBN/HiBiT-tagged GSPT1 in human BE2C cells assessed as induction of GSPT1 degradation at 3 uM pretreated with pomalidomide at 25 uM for 1 hr followed by compound treatment and measured after 3 hrs by immunoblot analysis; assay type: cell-based
MV4-11 [18] = assay: Antiproliferative activity against CRBN depleted human MV4-11 cells assessed as reduction in cell viability measured after 3 days by ATP-dependent luminescence assay; assay type: functional, cell-based; conditions: time 3.0 day
[19] = Selectivity index, ratio of EC50 for antiproliferative activity against human BE2C cells to EC50 for antiproliferative activity against human MV4-11 cells; assay type: functional
BE(2)-C [20] = assay: Antiproliferative activity against human BE2C cells harboring GSPT1 G575N mutant assessed as reduction in cell viability measured after 3 days by ATP-dependent luminescence assay; assay type: functional, cell-based; conditions: time 3.0 day
MV4-11 [21] = assay: Downregulation of GSPT2 protein abundance in human MV4-11 cells at 3 uM measured after 3 hrs by proteomics analysis; assay type: functional, cell-based
[22] = target: T1, Protein cereblon/Eukaryotic peptide chain release factor GTP-binding subunit ERF3A; assay: Molecular glue activity at CRBN/HiBiT-tagged GSPT1 in human MOLT-4 cells assessed as induction of GSPT1 degradation measured after 3 hrs by immunoblot analysis; assay type: cell-based
Target sequence in this assay (Q96SW2 whole entry): as the sequence (Q96SW2 whole entry, looked up) above
Target sequence in this assay (P15170 whole entry): as the sequence (P15170 whole entry, looked up) above

[23] = target: T1, Protein cereblon/Eukaryotic peptide chain release factor GTP-binding subunit ERF3A; assay: Molecular glue activity at CRBN/HiBiT-tagged GSPT1 in human MOLT-4 cells assessed as induction of GSPT1 degradation at 3 uM pretreated with carfilzomib at 500 nM for 1 hr followed by compound treatment and measured after 3 hrs by immunoblot analysis; assay type: cell-based
[24] = target: T1, Protein cereblon/Eukaryotic peptide chain release factor GTP-binding subunit ERF3A; assay: Molecular glue activity at CRBN/HiBiT-tagged GSPT1 in human BE2C cells assessed as induction of GSPT1 degradation at 3 uM pretreated with carfilzomib at 500 nM for 1 hr followed by compound treatment and measured after 3 hrs by immunoblot analysis; assay type: cell-based
[25] = target: T1, Protein cereblon/Eukaryotic peptide chain release factor GTP-binding subunit ERF3A; assay: Molecular glue activity at CRBN/GSPT1 in CRBN depleted human MOLT-4 cells assessed as induction of GSPT1 degradation at 3 uM measured after 3 hrs by immunoblot analysis; assay type: cell-based
MOLT-4 [26] = assay: Antiproliferative activity against human MOLT-4 cells harboring GSPT1 G575N mutant assessed as reduction in cell viability measured after 3 days by ATP-dependent luminescence assay; assay type: functional, cell-based; conditions: time 3.0 day
MV4-11 [27] = assay: Antiproliferative activity against wild type human MV4-11 cells assessed as reduction in cell viability measured after 3 days by ATP-dependent luminescence assay; assay type: functional, cell-based; conditions: MV4-11, 72 h
MV4-11 [28] = assay: Downregulation of GSPT1 protein abundance in human MV4-11 cells at 3 uM measured after 3 hrs by proteomics analysis; assay type: functional, cell-based
[29] = target: T1, Protein cereblon/Eukaryotic peptide chain release factor GTP-binding subunit ERF3A; assay: Molecular glue activity at CRBN/GSPT1 in CRBN depleted human MV4-11 cells assessed as induction of GSPT1 degradation at 3 uM measured after 3 hrs by immunoblot analysis; assay type: cell-based
MOLT-4 [30] = assay: Antiproliferative activity against CRBN depleted human MOLT-4 cells assessed as reduction in cell viability measured after 3 days by ATP-dependent luminescence assay; assay type: functional, cell-based; conditions: time 3.0 day
[31] = Selectivity index, ratio of EC50 for antiproliferative activity against human BE2C cells to EC50 for antiproliferative activity against human MOLT-4 cells; assay type: functional
[32] = target: DNA-binding protein Ikaros (Homo sapiens) (UniProt Q13422); assay: Induction of IKZF1 degradation in human MV4-11 cells at 3 uM measured after 3 hrs by proteomics analysis; assay type: cell-based
Chain of DNA-binding protein Ikaros (Homo sapiens) (Q13422 whole entry): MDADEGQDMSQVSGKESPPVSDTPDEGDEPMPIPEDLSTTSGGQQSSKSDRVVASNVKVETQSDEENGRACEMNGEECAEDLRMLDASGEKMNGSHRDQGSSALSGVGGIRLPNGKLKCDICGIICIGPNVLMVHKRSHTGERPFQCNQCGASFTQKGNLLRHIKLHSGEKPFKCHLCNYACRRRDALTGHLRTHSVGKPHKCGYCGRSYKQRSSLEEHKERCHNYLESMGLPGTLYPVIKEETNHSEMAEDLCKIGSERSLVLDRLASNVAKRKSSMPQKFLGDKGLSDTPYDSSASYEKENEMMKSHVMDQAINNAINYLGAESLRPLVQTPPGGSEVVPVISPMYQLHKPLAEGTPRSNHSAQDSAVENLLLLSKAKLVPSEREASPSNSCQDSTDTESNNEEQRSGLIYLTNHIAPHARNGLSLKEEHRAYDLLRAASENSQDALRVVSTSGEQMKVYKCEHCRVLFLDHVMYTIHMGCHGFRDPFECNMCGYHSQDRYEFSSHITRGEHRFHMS

[33] = target: DNA-binding protein Ikaros (Homo sapiens) (UniProt Q13422); assay: Induction of cHiBiT-tagged IKZF1 degradation in human MV4-11 cells; assay type: cell-based
[34] = target: DNA-binding protein Ikaros (Homo sapiens) (UniProt Q13422); assay: Induction of IKZF1 degradation in human MV4-11 cells at 3 uM measured after 3 hrs by immunoblot analysis; assay type: cell-based

SMILES | Activity [1] | DC50 [2] | Activity [3] | Activity [4] | EC50 (BE(2)-C [5]) | Activity (MV4-11 [6]) | Activity [7] | Activity [8] | Activity (BE(2)-C [9]) | EC50 (MOLT-4 [10]) | DC50 [11] | Activity [12] | Activity [13] | Activity [14] | Activity [15] | Activity [16] | Activity [17] | Activity (MV4-11 [18]) | Ratio EC50 [19] | Activity (BE(2)-C [20]) | other results
CC(C)CCOc1ccccc1OCCNS(=O)(=O)Nc1ccc2c(c1)CN(C1CCC(=O)NC1=O)C2=O (stereo not given) | inactive | 14000 nM | inactive | inactive | 13000 nM | inactive | inactive | inactive | inactive | 60 nM | 120 nM | inactive | inactive | inactive | inactive | inactive | inactive | inactive | ~100 | inactive | Activity (MV4-11 [21]): Active; DC50 [22]: 90 nM; Activity [23]: inactive; Activity [24]: inactive; Activity [25]: inactive; Activity (MOLT-4 [26]): inactive; EC50 (MV4-11 [27]): 40 nM; Activity (MV4-11 [28]): Active; Activity [29]: inactive; Activity (MOLT-4 [30]): inactive; Ratio EC50 [31]: ~100
CCCOc1ccccc1CNS(=O)(=O)Nc1ccc2c(c1)CN(C1CCC(=O)NC1=O)C2=O (stereo not given) | inactive | 7000 nM | inactive | inactive | 18000 nM | inactive | inactive | inactive | inactive | 110 nM | 60 nM | inactive | inactive | inactive | inactive | inactive | inactive | inactive | ~100 | inactive | Activity [32]: inactive; Activity [33]: inactive; Activity [34]: inactive; Activity (MV4-11 [21]): Active; DC50 [22]: 90 nM; Activity [23]: inactive; Activity [24]: inactive; Activity [25]: inactive; Activity (MOLT-4 [26]): inactive; EC50 (MV4-11 [27]): 80 nM; Activity (MV4-11 [28]): Active; Activity [29]: inactive; Activity (MOLT-4 [30]): inactive; Ratio EC50 [31]: ~100
